Data: patent publication US20170143674A1, “Use of Glutaryl Histamine for the Treatment of Respiratory Tract Diseases” (LTD "VALENTA-INTELLEKT", priority 2011, published 2017)
Marks after values point to notes of the source that are not given here.

Tests used:
[1] = system: Staphylococcus aureus (mouse-adapted strain 10); experiment: animal or person; format: in vivo, mice; details: for Mortality rate (%) / Survival rate (%): tenth day
Protocol: The tested medicament was glutaryl histamine in doses of 15, 30 and 45 mg/kg. Solutions of the tested medicament for oral administration were prepared ex tempore. Ampicillin (in intravenous administration) was used as a therapeutic preparation since this substance was the most experimentally studied antibiotic approved in clinical practice many years ago.
Staphylococcus aureus (mouse-adapted strain 10) was used as an infectious agent. Mice were infected intravenously.
Firstly, there was determined a lethal dose (LD100) of staphylococcus when intravenously administered to this line of mice with a certain weight. Fatal cases among mice were registered every day for ten days. The lethal dose was 3×10^8 CFU/mouse. […] For this purpose, mice were housed into cages (10 animals per cage) and infected with a lethal dose of staphylococcus. One hour later, each mouse was intravenously administered ampicillin in doses of 10, 20, 30, 40, and 50 mg/kg. A group of mice infected with a lethal dose of staphylococcus without the treatment was considered as a control group. Fatal cases among mice were registered every day for ten days.
The next step of the experiment was to study an effect of combined administration of glutaryl histamine with ampicillin on a model of staphylococcal sepsis in mice.
In the experiment, mice were housed in following groups (10 animals per cage):
Glutaryl histamine was administered orally in the corresponding doses to mice of groups 3, 4, 5, 6, 7, and 8 for 5 days. Five day after, all groups of mice were intravenously administered 0.2 ml of Staphylococcus aureus in the lethal dose. One hour after infection, mice of groups 2, 6, 7 and 8 were […] administered 0.2 ml of ampicillin in a dose of 20 mg/kg. After infection and administration of ampicillin, mice of groups 3-8 were administered glutaryl histamine for additional 5 days. During the experiment, the animals were observed every day, and fatal cases were registered.

LPS-induced tonsillitis = LPS-induced tonsillitis model (E. coli LPS into cervical lymph node); format: in vivo; details: for Area of germinal centers of lymphoid follicles in affected lymph nodes / TP (blood total protein) / Weight difference between affected and intact lymph nodes: M ± m
Protocol: This example is aimed at evaluating the activity of glutaryl histamine on experimental model of tonsillitis. LPS-induced tonsillitis is one of the most adequate models for the study of the pathogenesis, pathomorphological changes and action of pharmacological medicaments on the course of this disease.
Tonsillitis was induced under anesthesia by administration of a solution of E. coli lipopolysaccharide (LPS) (Sigma) in normal physiological solution in a dose of 20 μg/kg, by 10 μl to the right upper lymph node (Inn. Cervicales superficiales). After administration, the lymph nodes were put under superficial neck muscles and then the skin was stitched. The wound was treated with streptocide. The animal was placed into a post-operation cage.
The tested medicament was administered once daily in a given dose strictly at the stated time for three days before the induction of tonsillitis and 10 days after. Normal saline solution was used as placebo.
Immediately after euthanasia, the animals were subjected to necropsy, the affected and intact lymph nodes were removed and weighed.
The lymph nodes derived from the half of animals from each group were being frozen after removal in a refrigerating chamber at −25° C. for 72 hours. Then the lymph nodes were lyophilized.
In a half of animals from each group (7), the affected lymph nodes were subjected to histological analysis. After euthanasia, intact and affected lymph nodes were removed from each animal. […] Sections with a thickness of 4 to 6 μm were prepared from the paraffin blocks, stained with hematoxylin and eosin to reveal typical pathological processes and study required parameters using light-optical microscope Leica DM LS (magnification 200× and 400×).
Weights of intact and affected lymph nodes were compared and the nodes also were lyophilized to evaluate an effect of the medicaments on the swelling degree and adequacy of the model of tonsillitis.
The protein-synthetic function of the liver and a systemic effect of the medicaments on organism were evaluated in total protein (TP) analysis.

[2] = system: acute bronchitis induced by endotracheal administration of lipopolysaccharide; experiment: acute bronchitis (bronchiolitis/pneumonia) model, endotracheal LPS; format: in vivo, Wistar rats
From the text: The therapeutic effectiveness of glutaryl histamine was studied on an experimental model of acute bronchitis. The therapeutic effectiveness of glutaryl histamine was studied on an experimental model of acute bronchitis induced by endotracheal administration of lipopolysaccharide to laboratory Wistar rats through a probe. […] After administration of LPS, from 5 to 7 motions by the syringe plunger was made for better distribution of LPS in the pulmonary tract. After this manipulation, the animals were monitored for 2 hours to reveal complications after the administration.
Dexamethasone in a dose of 5 mg/kg was used a reference medicament.
Histology and morphometry. Respiratory and air pathways were studied on samples taken from the middle third (hilum of the lung) and apexes of the left lung. […] Material for the analysis of the lung histological structure in all animals was taken from the hilum and apex of the lung to study respiratory and air pathways.
The time history of changes in lungs after administration of LPS are shown in FIGS. 1, 2 and 3, wherein the changes are expressed by semi-quantitative scores (intensity of interstitial edema expressed by scores) or by a percentage ratio of the injured part of the lung.

Q: Which ED50 ([1]; Staphylococcus aureus, iv, read-out: ED50 (50% effective dose)) does the source give for CC1(C)S[C@@H]2[C@H](NC(=O)[C@H](N)c3ccccc3)C(=O)N2[C@H]1C(=O)O [ampicillin] here?
A: 17.3 mg/kg

Q: What about the “Mortality rate (%)” value ([1]; ampicillin 20 mg/kg) of the same compound?
A: 50%

Q: What about the “Survival rate (%)” value ([1]; ampicillin 20 mg/kg) of the same compound?
A: 50%

Q: What about the died/survived animals ([1]; day 1, ampicillin 20 mg/kg) of the same compound?
A: 0/10

Q: What about the died/survived animals ([1]; day 2, ampicillin 20 mg/kg) of the same compound?
A: 0/10

Q: What about the died/survived animals ([1]; day 3, ampicillin 20 mg/kg) of the same compound?
A: 0/10

Q: And the died/survived animals ([1]; day 4, ampicillin 20 mg/kg)?
A: 1/9

Q: And the died/survived animals ([1]; day 5, ampicillin 20 mg/kg)?
A: 2/8

Q: And the died/survived animals ([1]; day 6, ampicillin 20 mg/kg)?
A: 3/7

Q: And the died/survived animals ([1]; day 7, ampicillin 20 mg/kg)?
A: 4/6

Q: What about the died/survived animals ([1]; day 8, ampicillin 20 mg/kg) of the same compound?
A: 4/6

Q: What about the died/survived animals ([1]; day 9, ampicillin 20 mg/kg) of the same compound?
A: 5/5

Q: And the died/survived animals ([1]; day 10, ampicillin 20 mg/kg)?
A: 5/5

Q: O=C(O)CCCC(=O)NCCc1c[nH]cn1 [glutaryl histamine] was tested. Which “Mortality rate (%)” value (LPS-induced tonsillitis; Glutaryl histamine 9 mg/kg) did it give?
A: 0%

Q: What about the “The number of died animals/initial number of animals in a group” value (LPS-induced tonsillitis; Glutaryl histamine 9 mg/kg) of the same compound?
A: 0/14

Q: What about the “Area of germinal centers of lymphoid follicles in affected lymph nodes” value (shortened to “Area”) (LPS-induced tonsillitis; Glutaryl histamine 9 mg/kg) of the same compound?
A: 0.067 ± 0.006* mm^2

Q: And the “TP (blood total protein)” value (LPS-induced tonsillitis; Glutaryl histamine 9 mg/kg)?
A: 67.2 ± 1.1 g/L

Q: What about the “Weight difference between affected and intact lymph nodes” value (LPS-induced tonsillitis; Glutaryl histamine 9 mg/kg) of the same compound?
A: 13.0 ± 1.3 mg

Q: What about the “Mortality rate (%)” value (LPS-induced tonsillitis; Glutaryl histamine 27 mg/kg) of the same compound?
A: 0%

Q: What about the “The number of died animals/initial number of animals in a group” value (LPS-induced tonsillitis; Glutaryl histamine 27 mg/kg) of the same compound?
A: 0/14

Q: And the “Area” value (LPS-induced tonsillitis; Glutaryl histamine 27 mg/kg)?
A: 0.048 ± 0.003** mm^2

Q: And the “TP (blood total protein)” value (LPS-induced tonsillitis; Glutaryl histamine 27 mg/kg)?
A: 65.0 ± 0.6* ** g/l

Q: What about the “Weight difference between affected and intact lymph nodes” value (LPS-induced tonsillitis; Glutaryl histamine 27 mg/kg) of the same compound?
A: 8.8 ± 1.1* ** mg

Q: What about the “Area” value (LPS-induced tonsillitis; Glutaryl histamine 45 mg/kg) of the same compound?
A: 0.066 ± 0.007* mm^2

Q: And the “TP (blood total protein)” value (LPS-induced tonsillitis; Glutaryl histamine 45 mg/kg)?
A: 65.1 ± 0.8* ** g/l

Q: What about the “Peribronchial infiltration and interstitial edema (lung sections)” value ([2]; 27 mg/kg, 24 hours after administration of LPS) of the same compound?
A: Reduction

Q: What about the “Peri- and intrabronchial infiltration and interstitial edema (lung sections)” value ([2]; 27 mg/kg, 72 hours after administration of LPS) of the same compound?
A: Reduction

Q: What about the interstitial edema ([2]; 27 mg/kg, first and third days, compared with the control group) of the same compound?
A: reduction

Q: What about the alveolar infiltration ([2]; 27 mg/kg, starting from the second day up to the third day) of the same compound?
A: significant reduction

Q: What about the “Hemorrhagic symptoms in lungs” value ([2]; all time points, each tested dose) of the same compound?
A: significantly weaker compared to the control group and the group of dexamethasone

Q: And the died/survived animals ([1]; day 1, glutaryl histamine 15 mg/kg)?
A: 0/10

Q: And the died/survived animals ([1]; day 1, glutaryl histamine 30 mg/kg)?
A: 0/10

Q: And the died/survived animals ([1]; day 1, glutaryl histamine 45 mg/kg)?
A: 0/10

Q: What about the died/survived animals ([1]; day 2, glutaryl histamine 15 mg/kg) of the same compound?
A: 0/10

Q: What about the died/survived animals ([1]; day 2, glutaryl histamine 30 mg/kg) of the same compound?
A: 0/10

Q: What about the died/survived animals ([1]; day 2, glutaryl histamine 45 mg/kg) of the same compound?
A: 0/10

Q: What about the died/survived animals ([1]; day 3, glutaryl histamine 15 mg/kg) of the same compound?
A: 0/10

Q: And the died/survived animals ([1]; day 3, glutaryl histamine 30 mg/kg)?
A: 0/10

Q: What about the died/survived animals ([1]; day 3, glutaryl histamine 45 mg/kg) of the same compound?
A: 1/9

Q: And the died/survived animals ([1]; day 4, glutaryl histamine 15 mg/kg)?
A: 1/9

Q: What about the died/survived animals ([1]; day 4, glutaryl histamine 30 mg/kg) of the same compound?
A: 1/9

Q: What about the died/survived animals ([1]; day 4, glutaryl histamine 45 mg/kg) of the same compound?
A: 1/9

Q: What about the died/survived animals ([1]; day 5, glutaryl histamine 15 mg/kg) of the same compound?
A: 2/8

Q: And the died/survived animals ([1]; day 5, glutaryl histamine 30 mg/kg)?
A: 2/8

Q: What about the died/survived animals ([1]; day 5, glutaryl histamine 45 mg/kg) of the same compound?
A: 3/7

Q: And the died/survived animals ([1]; day 6, glutaryl histamine 15 mg/kg)?
A: 4/6

Q: And the died/survived animals ([1]; day 6, glutaryl histamine 30 mg/kg)?
A: 3/7

Q: And the died/survived animals ([1]; day 6, glutaryl histamine 45 mg/kg)?
A: 4/6

Q: And the died/survived animals ([1]; day 7, glutaryl histamine 15 mg/kg)?
A: 5/5

Q: What about the died/survived animals ([1]; day 7, glutaryl histamine 30 mg/kg) of the same compound?
A: 4/6

Q: What about the died/survived animals ([1]; day 7, glutaryl histamine 45 mg/kg) of the same compound?
A: 5/5

Q: And the died/survived animals ([1]; day 8, glutaryl histamine 15 mg/kg)?
A: 6/4

Q: And the died/survived animals ([1]; day 8, glutaryl histamine 30 mg/kg)?
A: 6/4

Q: What about the died/survived animals ([1]; day 8, glutaryl histamine 45 mg/kg) of the same compound?
A: 6/4

Q: And the died/survived animals ([1]; day 9, glutaryl histamine 15 mg/kg)?
A: 6/4

Q: What about the died/survived animals ([1]; day 9, glutaryl histamine 30 mg/kg) of the same compound?
A: 7/3

Q: What about the died/survived animals ([1]; day 9, glutaryl histamine 45 mg/kg) of the same compound?
A: 7/3

Q: And the died/survived animals ([1]; day 10, glutaryl histamine 15 mg/kg)?
A: 7/3

Q: And the died/survived animals ([1]; day 10, glutaryl histamine 30 mg/kg)?
A: 7/3

Q: And the died/survived animals ([1]; day 10, glutaryl histamine 45 mg/kg)?
A: 8/2

Q: What about the “Mortality rate (%)” value ([1]; glutaryl histamine 15 mg/kg) of the same compound?
A: 70%

Q: What about the “Survival rate (%)” value ([1]; glutaryl histamine 15 mg/kg) of the same compound?
A: 30%

Q: What about the “Mortality rate (%)” value ([1]; glutaryl histamine 30 mg/kg) of the same compound?
A: 70%

Q: What about the “Survival rate (%)” value ([1]; glutaryl histamine 30 mg/kg) of the same compound?
A: 30%

Q: What about the “Mortality rate (%)” value ([1]; glutaryl histamine 45 mg/kg) of the same compound?
A: 80%

Q: What about the “Survival rate (%)” value ([1]; glutaryl histamine 45 mg/kg) of the same compound?
A: 20%
